Data set [1] has as its system bleomycin-induced pulmonary fibrosis. The method, then:
Materials and Methods Protocol to Examine the Effects of an anti-human CLDN1 Monoclonal Antibody in Preventing Fibrosis in a Bleomycin-Induced Pulmonary Fibrosis Model. Pathogen-free 6 weeks old female C57BL/6Jmice were obtained from Japan SLC, Inc. (Japan). At Day 0, 54 mice were induced to develop pulmonary fibrosis by a single intratracheal administration of bleomycin hydrochloride (BLM, Nippon Kayaku, Japan) in saline at a dose of 3.0 mg/kg, in a volume of 50 μL per animal using Microsprayer® (Penn-Century, USA). In each slot, the mice were randomized into 3 groups of 18 mice based on their body weight on the day before the start of treatment at Day 0. Individual body weights were measured daily during the experimental period. Survival, clinical signs and behaviour of mice were monitored daily.
Mice groups. Group 1 (Vehicle): Eighteen bleomycin-induced pulmonary fibrosis model mice were intraperitoneally administered vehicle [Saline] in a volume of […] once weekly from Day 0 to 20. […] Group 3 (Dexamethasone): Eighteen bleomycin-induced pulmonary fibrosis model mice were orally administered pure water supplemented with Dexamethasone at a dose of 0.25 mg/kg (in a volume of 10 mL/kg) once daily from Day 0 to 20. Mice in all groups were sacrificed at Day 21.
Survival, biochemical and histological analysis. […]

The test system of data set [2] is BLM-induced skin fibrosis. Briefly: Bleomycin-induced skin fibrosis model. In kind it is in vivo, mouse. Particulars: 50 mg/kg i.p., BLM for 4 weeks. The source says: BLM Model and Sampling. As indicated on the scheme presented on FIG. 6, the BLM is subcutaneously injected every other day into the pre-shaved back of mice for 4 weeks. The injection sites are located at the corners of a 1.5 cm^2-square shaved area and used in rotation (corner 1, corner 2, corner 3, corner 4, corner 1, etc). A 5-mm circle is clipped using a dermal punch and used for collagen quantification. The remaining intact area is cut out into 3 rectangles, one for histology and two for biochemical analyses.
Effects of Imatinib on Skin Fibrosis. Imatinib mesylate is a tyrosine kinase inhibitor against c-Abl, PDGFR, and several other tyrosine kinases (Alfiya et al., Arthritis Rheum., 2009, 60: 219). c-Abl is crucial for induction of ECM proteins through the TGF-β pathway. Its inhibition may reduce the synthesis of EMC components. Imatinib interferes with PDGF signalling by blocking the tyrosine kinase activity of PDGFR (Alfiya et al., Arthritis Rheum., 2009, 60: 219). The study design is presented on FIG. 7.

In data set [3] the test system is bleomycin-induced pulmonary fibrosis. Briefly: Bleomycin-induced pulmonary fibrosis model, late treatment (Day 7 to 20). Format: in vivo, C57BL/6J mice. Conditions: mean±SD, Day 21. The source says: Protocol to Examine the Effects of anti-human CLDN1 Monoclonal Antibody in Treating Fibrosis in a Bleomycin-Induced Pulmonary Fibrosis Model. Pathogen-free 6 weeks old female C57BL/6Jmice will be obtained from Japan SLC, Inc. (Japan). […] The mice were transferred to a clean cage (resting cage) and kept until recovery from anesthesia. The bleomycin administration took place on two separate days, with equal numbers of mice assigned to each day. […] Mice groups. […] Survival, biochemical and histological analysis. […] Lung hydroxyproline content was assessed according to a routine method. Statistical tests. Statistical tests were performed using Kruskal-Wallis test.

The subject of data set [4] is UUO-induced renal interstitial fibrosis. Briefly: Unilateral ureteral obstruction (UUO)-induced renal interstitial fibrosis. In kind it is in vivo. The method, then:
Test Substances. A murinized version of an anti CLDN1 mAb was synthetized at the Inventors' laboratory and used in the present study. […] To prepare dosing solution, the anti-CLDN1 mAb was diluted with a saline solution used as vehicle. Telmisartan (Micardis®) was purchased from Boehringer Ingelheim GmbH (Germany) and dissolved in pure water.
Unilateral Ureteral Obstruction (UUO) Surgery. On Day 0, UUO surgery was performed under three types of mixed anesthetic agents (medetomidine, midazolam, butorphanol). After shaving the hair, the abdomen was cut open and the left ureter was exteriorized. The ureter was ligated by 4-0 silk sutures at two points. The peritoneum and the skin were closed with sutures, and the mice were transferred to a clean cage and kept until recovery from anesthesia.
Route of Drug Administration. The anti-CLDN1 mAb was administered intraperitoneally at a volume of 100 μL/mouse. Telmisartan was administered orally at a volume of 10 μL/mouse.
Treatment Doses. The anti-CLDN1 mAb was administered at a dose of 500 μg/100 μL/mouse. Telmisartan was administered at a dose of 30 mg/kg once daily.
Animals. Seven-week-old female C57BL/6J mice were obtained from Japan SLC, Inc. (Japan). Animals were housed and fed with a normal diet (CE-2; CLEA Japan, Japan) under controlled conditions. All animals used in the study were housed and cared for in accordance with the Japanese Pharmacological Society Guidelines for Animal Use. The animals were maintained in a SPF facility under controlled conditions of temperature (23±3° C.), humidity (50±20%), lighting (12-hour artificial light and dark cycles; light from 8:00 to 20:00) and air exchange. A high pressure was maintained in the experimental room to prevent contamination of the facility. The animals were housed in TPX cages (CLEA Japan) with a maximum of 4 mice per cage. Sterilized Paper-Clean (Japan SLC) was used for bedding and replaced once a week.
Measurement of Plasma Biochemistry. For plasma biochemistry, non-fasting blood was collected in polypropylene tubes with anticoagulant (Novo-Heparin, Mochida Pharmaceutical Co. Ltd., Japan) and centrifuged at 1,000×g for 15 minutes at 4° C. The supernatant was collected and stored at −80° C. until use. Plasma urea nitrogen was measured by FUJI DRI-CHEM 7000 (Fujifilm, Japan).
Measurement of Kidney Biochemistry. To quantify kidney hydroxyproline content, frozen left kidney samples were processed by an alkaline-acid hydrolysis method as follows. Kidney samples were dissolved in 2N NaOH at 65° C., and autoclaved at 121° C. for 20 minutes. The lysed samples (150 μL) were acid-hydrolyzed with 150 μL of 6N HCl at 121° C. for 20 minutes, and neutralized with 150 μL of 4N NaOH containing 10 mg/mL activated carbon. AC buffer (2.2M acetic acid/0.48M citric acid, 150 μL) was added to the samples, followed by centrifugation to collect the supernatant. A standard curve of hydroxyproline was constructed with serial dilutions of trans-4-hydroxy-L-proline (Sigma-Aldrich, USA) starting at 16 μg/mL. The prepared samples and standards (each 400 μL) were mixed with 400 μL chloramine T solution (Nacalai Tesque Inc., Japan) and incubated for 25 minutes at room temperature. The samples were then mixed with Ehrlich's solution (400 μL) and heated at 65° C. for 20 minutes for color development. After samples were cooled on ice and centrifuged to remove precipitates, the optical density of each supernatant was measured at 560 nm. The concentrations of hydroxyproline were calculated from the hydroxyproline standard curve. Protein concentrations of kidney samples were determined using a BCA protein assay kit (Thermo Fisher Scientific, USA) and used to normalize the calculated hydroxyproline values. Kidney hydroxyproline contents were expressed as μg per mg protein.
Histopathological Analyses. For PAS staining, sections were cut from paraffin blocks and stained with Schiff's reagent (Wako Pure Chemical Industries) according to the manufacturer's instructions. […]

The target in data set [5] is T1, human Claudin-1 (CLDN1) (human, UniProt O95832 1-211).
T1 construct: whole, on cells; Tight junction membrane protein; endogenously expressed on the cell lines, primary cells and tissues used; also called CLDNA
T1 sequence (looked up): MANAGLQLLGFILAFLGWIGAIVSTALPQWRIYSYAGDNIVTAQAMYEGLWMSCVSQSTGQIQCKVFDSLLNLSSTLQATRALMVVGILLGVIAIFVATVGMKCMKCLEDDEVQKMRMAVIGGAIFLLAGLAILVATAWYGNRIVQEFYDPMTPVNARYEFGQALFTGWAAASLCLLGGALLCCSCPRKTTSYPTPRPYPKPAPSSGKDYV
Kind of data set: flow cytometry on A549 lung cells, PE median fluorescence, Michaelis-Menten fit. The method, then:
(§1) FIG. 4. Binding Properties of Humanized CLDN1-specific MAbs Targeting CLDN1 Expressed on Kidney RPTEC/TERT1 and Lung A549 Cell Lines. Cells were incubated with increasing concentrations of humanized H3L3 CLDN1-specific mAb, as indicated. Representative histograms show binding of humanized H3L3 CLDN1-specific mAb at the saturation point for each specific cells line: (A) RPTEC/TERT1 (50 μg/mL) and (B) A549 (20 μg/mL). Binding was measured by flow cytometry after incubation with PE-labelled anti-human and analyzed with Cytoflex and FlowJo V10. […] The graphs show binding of humanized H3L3 CLDN1-specific mAb until the saturation point for each specific cell line.
(§2) Binding Studies. Cells were de-attached using a solution of EDTA (4 mM) and re-suspended in PBS containing 1% FBS at 4° C. Then, 150,000 cells were incubated with increasing concentrations of the humanized H3L3 CLDN1-specific mAb (see WO/2017/162678) and the binding signals were read by flow cytometry after incubation with PE-labelled anti-human using a dilution of 1:100 and analyzed with Cytoflex and FlowJo V10. Two washes with PBS containing 1% FBS were performed after every antibody incubation. A binding curve for each cell line was built using the PE median fluorescence intensity (MFI) and the Kd of the interaction was calculated by applying the Michaelis-Menten mathematical model in R 3.5.1.

In data set [6] the target is T1, human Claudin-1 (CLDN1). Kind of data set: flow cytometry on RPTEC/TERT1 kidney cells, PE median fluorescence, Michaelis-Menten fit. The method, then: as §1, §2
On the technique in general: Flow cytometry measures light scatter and fluorescence of single cells or particles in a stream.

The nature of data set [7]: Antibody biodistribution in mice (Alexa-fluor 750 label, ex vivo organ fluorescence). Also on record: species or system Balb/c mice. Conditions: 500 μg i.p.; organs harvested at 24 hours and 48 hours. As to the method: Reagents and Antibodies. The anti-Claudin-1 monoclonal antibody (anti-CLDN1 mAb-OM-7D3-B3) was produced as previously described (Fofana et al., Gastroenterology, 2010, 139: 953-964, e1-4). Control mAb (rat IgG2b clone LTF-25, Bio X Cell) was also used.
Antibody biodistribution. The antibodies were labeled with Alexa-fluor 750 (RD-Biotech, Besangon, France). Eight week-old Balb/c mice were injected intraperitoneally with 500 μg of Alexa-fluor 750-labeled CLDN1-specific or control mAb. Organs were harvested 24 hours and 48 hours as previously described (Krieger et al., Hepatology, 2010, 51: 1144-1157) and ex vivo organ-specific fluorescence was detected with an IVIS Lumina 50 (Xenogen-Caliper-Perkin-Elmer) and expressed as average efficiency.
Statistical Analyses. The Mann-Whitney test was used. A p-value <0.05 was considered significant. Statistical analyzes were performed with GraphPad Prism 6 software.

Setting [8] is: kidney sections versus Vehicle group.

Where a name gives a salt, the structure may show the parent alone.

Consider `C[C@@H]1C[C@H]2[C@@H]3CCC4=CC(=O)C=C[C@]4(C)[C@@]3(F)[C@@H](O)C[C@]2(C)[C@@]1(O)C(=O)CO` [Dexamethasone], for which the “mice found dead before reaching Day 21” value in data set [1] (18 mice per group) is recorded as “Ten out of 18”. In data set [1] (Kaplan-Meier, Log Rank Test), the “survival rate compared with Vehicle group” value is listed as “significant decrease”.
For `Cc1ccc(NC(=O)c2ccc(CN3CCN(C)CC3)cc2)cc1Nc1nccc(-c2cccnc2)n1` [Imatinib, Imatinib mesylate], the dermal thickness result in data set [2] (HE staining) is “significant decrease”. Moreover, the skin fibrosis area entry in data set [2] (Masson staining) is “significant decrease”.
Turning to `COC(=O)c1ccc2c(c1)NC(=O)/C2=C(\Nc1ccc(N(C)C(=O)CN2CCN(C)CC2)cc1)c1ccccc1` [Nintedanib], the lung hydroxyproline levels in data set [3] was found to be 51.3±9.0.
In data set [4] (fibrosis area, mean ± S.D., n = 8), `CCCc1nc2c(C)cc(-c3nc4ccccc4n3C)cc2n1Cc1ccc(-c2ccccc2C(=O)O)cc1` [Telmisartan] came in with a Sirius red-positive area of 2.44 ± 1.19%. Further, in data set [4] (setting [8]), the “inflammatory cell infiltration, F4/80 immunostaining” value is given as “lower than that in the Vehicle group” and the “inflammatory cell infiltration, PAS staining” value was “lower than in the Vehicle group”. This molecule had a Kidney hydroxyproline in data set [4] (left kidney, mean ± S.D., n = 8) of 6.19 ± 2.31 μg/mg total protein. The Right kidney weight in data set [4] (mean ± S.D., n = 8) is 139 ± 9 mg. Further, in data set [4] (mouse, in vivo), the Body weight worked out at 18.7 ± 1.1 g and the Plasma urea nitrogen stood at 33.9 ± 5.2 mg/dL. In addition, the Left kidney weight in data set [4] (obstructed kidney, mean ± S.D., n = 8) is reported as 630 ± 160 mg.

B1: humanized H3L3 CLDN1-specific mAb (antibody, V domains shown)
VH: QVQLVESGGGVVQPGRSLRLSCLGSGFSFSSYGMNWVRQAPGKGLEWVASISPSGSYFYYADSVKGRFTISRDNSKNTLYLQMTSLRAEDTAIYYCARLPGFNPPFDHWGQGTLVTVSS
VL: DIQMTQSPSSLSASVGDRVTITCKASQNVGGNVDWYQWKPGKAPKLLIYGASNRYTGVPDRFRGSGSGTDFTLTISSLQPEDVATYYCLQYKNNPWTFGGGTKVEIK
notes: also called anti-CLDN1 mAb H3L3; humanized anti-CLDN1 mAb
As for B1, the results for the dissociation constant Kd with human Claudin-1 (CLDN1) [5] and with human Claudin-1 (CLDN1) [6] were 16.3 nM and 53 nM, respectively.

B2: OM-7D3-B3: rat monoclonal antibody against human Claudin-1 secreted by hybridoma DSM ACC2938; VH SEQ ID NO: 1, VL SEQ ID NO: 2 (antibody, V domains shown)
VH: EVQLVESGGGLVQPGRSLKLSCLGSGFSFSSYGMNWIRQAPGKGLEWVASISPSGSYFYYADSVKGRFTISRENAKNTLYLQMTSLRAEDTALYYCARLPGFNPPFDHWGQGVVVTVSS
VL: NTVMTQSPTSMFMSVGDRVTMNCKASQNVGGNVDWYQWKPGQSPKLLMYGASNRYTGVPDRFRGSGSGTDFTLTISNMQTEDLAVYYCLQYKNNPWTFGGGTKVELK
modifications: variable heavy chain of OM-7D3-B3; variable light chain of OM-7D3-B3
Take B2: in data set [7], the “organ enrichment of labeled antibody versus control mAb” value was “enrichment in the anti-CLDN1 monoclonal antibody was observed in skin, kidneys, lungs, intestines and liver”.

For orientation: Kd means the constant that tells how readily two partners part at equilibrium.

Values taken from patent publication US20230138047A1, “ANTI-CLAUDIN-1 MONOCLONAL ANTIBODIES FOR THE PREVENTION AND TREATMENT OF FIBROTIC DISEASES” (Université de Strasbourg, priority 2019, published 2023).
